According to ChEMBL document CHEMBL1128647, “Novel open-ring analogues of N5,N10-methylenetetrahydrofolic acid with selective activity against brain tumor” (1995):

How the values were obtained:
Assay type in all cases: functional
Breast cancer cell line = test: Cytotoxic activity against human breast cancer cell line
Ovarian cancer cell line = test: Cytotoxic activity against human ovarian cancer cell line
Lung cancer cell line = test: Cytotoxic activity against human lung cancer cell line
Colon cancer cell line = test: Cytotoxic activity against human colon cancer cell line
Renal cancer cell line = test: Cytotoxic activity against human renal cancer cell line
Prostatic carcinoma cell = test: Cytotoxic activity against human prostate cancer cell line
SNB-75 = test: Cytotoxic activity against human CNS SNB-75 cancer cell line
U-251 = test: Cytotoxic activity against human CNS U251 cancer cell line

`Cc1nc(N)nc(O)c1N1CCN(c2ccc(S(N)(=O)=O)cc2)CC1` was tested, and the GI50 (Breast cancer cell line) was > 100 µM, the GI50 (Ovarian cancer cell line) was > 100 µM and the GI50 (Lung cancer cell line) was > 0.0001 µM. For the same molecule, the GI50 (Colon cancer cell line) was > 100 µM, the GI50 (Renal cancer cell line) was > 100 µM and the GI50 (Prostatic carcinoma cell) was > 100 µM. It also gave a GI50 (SNB-75) of 0.1 µM.
With `Cc1nc(N)nc(O)c1N1CCN(c2ccc(C(=O)O)cc2)CC1` the GI50 (Breast cancer cell line) was > 100 µM, the GI50 (Ovarian cancer cell line) was > 100 µM and the GI50 (Lung cancer cell line) was > 100 µM. The GI50 (Colon cancer cell line) was > 100 µM, the GI50 (Renal cancer cell line) was 1.39 µM and the GI50 (Prostatic carcinoma cell) was > 100 µM. For the same molecule, the GI50 (SNB-75) was > 100 µM.
For `Cc1nc(N)nc(O)c1N1CCN(c2ccc(C#N)cc2)CC1`, the GI50 (Breast cancer cell line) was > 0.0001 µM, the GI50 (Ovarian cancer cell line) was 93 µM and the GI50 (Lung cancer cell line) was > 100 µM. For the same molecule, the GI50 (Colon cancer cell line) was > 0.0001 µM, the GI50 (Renal cancer cell line) was > 100 µM and the GI50 (Prostatic carcinoma cell) was > 0.0001 µM. For the same molecule, the GI50 (SNB-75) was 0.04 µM.
Molecule `Cc1nc(N)nc(O)c1N1CCN(c2ccc(S(=O)(=O)N(Cc3ccccc3)Cc3ccccc3)cc2)CC1` has a GI50 (Breast cancer cell line) of 2.1 µM, a GI50 (Ovarian cancer cell line) of 0.7 µM and a GI50 (Lung cancer cell line) of 4.8 µM. For the same molecule, the GI50 (Colon cancer cell line) was 55 µM, the GI50 (Renal cancer cell line) was 3.1 µM and the GI50 (Prostatic carcinoma cell) was 1.9 µM. The GI50 (U-251) was 3.68 µM.
For `Cc1nc(N)nc(O)c1N1CCN(c2ccc([N+](=O)[O-])cc2)CC1`, the GI50 (Breast cancer cell line) was > 100 µM, the GI50 (Ovarian cancer cell line) was > 100 µM and the GI50 (Lung cancer cell line) was > 100 µM. The GI50 (Colon cancer cell line) was > 100 µM, the GI50 (Renal cancer cell line) was > 100 µM and the GI50 (Prostatic carcinoma cell) was > 100 µM. For the same molecule, the GI50 (SNB-75) was < 0.01 µM.
In the case of `CCOC(=O)CCC(NC(=O)c1ccc(N2CCN(c3c(C)nc(N)nc3O)CC2)cc1)C(=O)OCC` (centres undefined), the GI50 (Breast cancer cell line) is reported as > 100 µM, the GI50 (Ovarian cancer cell line) is reported as > 0.0001 µM and the GI50 (Lung cancer cell line) is reported as > 100 µM. For the same molecule, the GI50 (Colon cancer cell line) was > 100 µM, the GI50 (Renal cancer cell line) was > 100 µM and the GI50 (Prostatic carcinoma cell) was > 100 µM. For the same molecule, the GI50 (SNB-75) was < 0.01 µM.
`Cc1nc(N)nc(O)c1N1CCN(c2ccc(C(=O)NC(CCC(=O)O)C(=O)O)cc2)CC1` (centres undefined) was tested, and the GI50 (Breast cancer cell line) was > 100 µM, the GI50 (Ovarian cancer cell line) was > 100 µM and the GI50 (Lung cancer cell line) was > 100 µM. The GI50 (Colon cancer cell line) was > 100 µM, the GI50 (Renal cancer cell line) was > 0.0001 µM and the GI50 (Prostatic carcinoma cell) was > 100 µM. For the same molecule, the GI50 (SNB-75) was < 0.01 µM.
